The record followed here is US11111234B2, “Salt of a quinazoline derivative-like tyrosine kinase inhibitor and crystal form thereof” (Xuanzhu Pharma Co., Ltd., priority 2016, dated 2021).

Where a name gives a salt, the structure may show the parent alone.

Assay type in all cases: physicochemical
The nature of series [1]: Study on solubility (HPLC). Here is the method:
measurement was performed in accordance with High Performance Liquid Chromatography in Appendix II V D in Pharmacopoeia of the People's Republic of China (2010) Volume II.

The nature of series [2]: Study on hygroscopicity (pharmaceutical hygroscopicity test, General Rule 9103 ChP 2015). Here is the method: measurement was performed in accordance with the Guidelines for pharmaceutical hygroscopicity test in General Rule 9103 of Pharmacopoeia of the People's Republic of China (2015) Volume IV.
The nature of series [3]: Study on stability (high temperature, high moisture, light; purity by HPLC and XRD). The settings on record: for XRD: compared with the XRD pattern at Day 0. How it is done:
The Crystal form A of the maleate of the compound of Formula (1) and the hydrochloride of the compound of Formula (1) were kept at 70° C. for 3 d, and the samples were taken at Day 1 and Day 3, respectively, and were tested for purity and XRD, which were compared with those of the sample at Day 0.
The Crystal form A of the maleate of the compound of Formula (1) was kept under conditions of high moisture (25° C., RH92.5%) for 5 d, or under condition of light (4500LX±500LX) for 10 d, and was tested for purity and XRD, which were compared with those of the sample at Day 0.
Purity measurement: measurement was performed in accordance with High Performance Liquid Chromatography in Appendix II V D in Pharmacopoeia of the People's Republic of China (2010) Volume II.
XRD test: the same as described in Example 1.

The term solubility denotes the dissolved amount per volume that the medium holds. Consider `COc1cc2ncnc(Nc3ccc(F)c(Cl)c3)c2cc1NC(=O)/C=C/CN1CC2(CCC2)C1` [Hydrochloride of the compound of Formula (1)] [(E)-N-(4-((3-chloro-4-fluorophenyl)amino)-7-methoxylquinazolin-6-yl)-4-(2-azaspiro[3.3]heptan-2-yl)-2-butenamide], for which the solubility in series [1] (H2O) came to 2200.6 µg/mL; in series [1] (pH of solution 1.0), 3255.8 µg/mL; in series [1] (pH of solution 4.5), 1883.0 µg/mL; in series [1] (pH of solution 6.5), 17.6 µg/mL; in series [1] (pH of solution 7.4), 11.2 µg/mL. Moreover, in series [2], the “Hygroscopic weight gain(%)” value came out at 7.8%. Also, the “purity (%)” value in series [3] (70° C., standing time 0 d) is on record as 98.4%; in series [3] (70° C., standing time 1 d), 92.5%; in series [3] (70° C., standing time 3 d), 89.0%. The same molecule had a decrease in purity in series [3] (high temperature (70° C.) for 3 d) of 9.4%.

`COc1cc2ncnc(Nc3ccc(F)c(Cl)c3)c2cc1NC(=O)/C=C/CN1CC2(CCC2)C1` [Crystal form A of the maleate of the compound of Formula (1)] [(E)-N-(4-((3-chloro-4-fluorophenyl)amino)-7-methoxylquinazolin-6-yl)-4-(2-azaspiro[3.3]heptan-2-yl)-2-butenamide]: the solubility was determined as 4411.5 µg/mL in series [1] (H2O); 20277.8 µg/mL in series [1] (pH of solution 1.0); 9748.4 µg/mL in series [1] (pH of solution 4.5); 89.1 µg/mL in series [1] (pH of solution 6.5); 68.9 µg/mL in series [1] (pH of solution 7.4). Also, the “solubility compared with the hydrochloride” value in series [1] (under various pH conditions) is on record as “higher solubility”. Further, the “Hygroscopic weight gain(%)” value in series [2] is on record as 0.07%. In series [2], the Hygroscopicity result is recorded as “No or almost no”. In series [2], the “hygroscopicity compared with the hydrochloride” value is “lower hygroscopicity”. The “purity (%)” value in series [3] (25° C., RH92.5%, standing time 0 d) is on record as 98.6%; in series [3] (25° C., RH92.5%, standing time 5 d), 98.4%; in series [3] (70° C., standing time 0 d) it was 98.4%; in series [3] (70° C., standing time 1 d), 98.0%; in series [3] (70° C., standing time 3 d), 97.4%; in series [3] (light 4500LX ± 500LX, standing time 0 d), 98.6%. Besides, the “purity (%)” value in series [3] (light 4500LX ± 500LX, standing time 10 d) was 98.4%. In addition, the XRD result in series [3] (70° C., 1 d) is given as “the same as”; in series [3] (70° C., 3 d), “the same as”; in series [3] (light 4500LX ± 500LX, 10 d), “the same as”. Further, the change in purity entry in series [3] (light (4500LX±500LX) 10 d, high moisture (25° C., RH92.5%) 5 d, or high temperature (70° C.) 3 d) is given as “No apparent change in purity”.
